Each structure is given as a SMILES string.

The series in a line: gradient 5% acetonitrile 3 min, to 50% in 2 min, to 85% in 15 min, held 3 min, 100 µL/min. As to conditions: column: Zorbax Extend-C18 2.1 x 50 mm; eluents: water / acetonitrile, 0.1% formic acid. A digest of the protocol:
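Pure standards were analyzed in mixtures of ~100 molecules using HPLC coupled to a quadrupole time-of-flight mass spectrometer, in both positive and negative ionization mode. Separation used a Zorbax Extend-C18 column (2.1 × 50 mm, 1.8 μm) at 100 μL/min, with water and acetonitrile each containing 0.1% formic acid. Dead and dwell volumes were 40 μL and 900 μL, and data were collected over 3 months. Retention time was read from computationally picked adduct peaks, each inspected manually.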
`Cc1nc(-c2noc(-c3ccc(F)cc3)n2)cn1CC(=O)NC(C)c1ccccc1` (centres undefined): the RP-LC retention time was 854 s.

On to `O=c1c2nc(-c3ccc4c(c3)OCO4)cn2ccn1-c1cccc(F)c1`, for which the RP-LC retention time was 785 s.

Compound `CSc1ccc(-c2nc3ncccn3c2Nc2ccccc2C)cc1` returned an RP-LC retention time of 839 s.

In the case of `COc1ccc(C(C)NC(=O)c2cn3c(n2)COCC3)cc1OC` (centres undefined), the RP-LC retention time is 608 s.

In the case of `FC(F)(F)c1cccc(-c2cncc(N3CCN(c4ccccn4)CC3)n2)c1`, the RP-LC retention time turned out to be 740 s.

On to `Cc1cc(C)cc(NC(=O)C2CCN(S(=O)(=O)c3ccc4[nH]c(=O)sc4c3)CC2)c1`, for which the RP-LC retention time turned out to be 851 s.

`Cc1cccc(N2CCN(C(=O)CCC3CCCN(C(=O)Nc4ccccc4)C3)CC2)c1C` (centres undefined) came in with an RP-LC retention time of 1080 s.

On to `COc1cccc(CNC(=O)C2(C)CCCN(C(=O)Nc3cc(Cl)ccc3C)C2)c1` (centres undefined), for which the RP-LC retention time turned out to be 982 s.

Take `O=C(c1cc(-c2ccncc2)n[nH]1)N1CCN(C(=O)c2cc3ccccc3[nH]2)CC1`: the RP-LC retention time is 598 s.

With `CC(C)(C)n1cc(C(=O)c2ccccc2)cc1-c1ccccc1`, the RP-LC retention time was 1350 s.

For the compound `Cn1nc(CNC(=O)c2ccccc2Br)c2ccccc21`, the RP-LC retention time was determined as 757 s.

For `COc1ccc(N2CC(c3nc(-c4ccccc4)no3)CC2=O)cc1OC` (centres undefined), the RP-LC retention time is 669 s.

On to `Cc1cc(=O)n(CC(=O)Nc2ccc(Br)cc2)c(N)n1`, for which the RP-LC retention time was determined as 609 s.

For the compound `COc1ccc(OCc2nc(CCN(C)C(=O)c3cc(OC)cc(OC)c3)no2)cc1`, the RP-LC retention time was determined as 810 s.

`COc1ccc(CNC(=O)c2cnc(OC)nc2)cc1` registered an RP-LC retention time of 673 s.

As for `O=C(Nc1ccc(Cl)cc1)C1(c2cccs2)CCOCC1`, the RP-LC retention time was found to be 976 s.

With `Cc1noc(C)c1-c1ccc(S(=O)(=O)NC2CCCCCC2)cc1`, the RP-LC retention time turned out to be 1010 s.

Compound `CC(C)NC(=O)c1ccc(OCC2CCN(C(=O)Cc3cccs3)CC2)cc1` displayed an RP-LC retention time of 822 s.

The compound `COc1ccc(CNC(=O)C2CCCN(c3ccc(=O)n(-c4cccc(Cl)c4)n3)C2)c(OC)c1` (centres undefined) displayed an RP-LC retention time of 876 s.

The compound `CC1(C)CC(NC(=O)c2cccc(Br)c2)CC(C)(C)N1` came in with an RP-LC retention time of 620 s.

Regarding `Cc1ccc(S(=O)(=O)N(C)CC2CCOCC2)cc1Cl`, the RP-LC retention time was 894 s.

For `CCNC(=O)Nc1ccc2c(c1)CN(S(=O)(=O)c1cnn(CC)c1)CCO2`, the RP-LC retention time came to 704 s.

The compound `O=C(C1CCN(S(=O)(=O)c2cc(-c3noc(C4CC4)n3)cs2)CC1)N1CCOCC1` returned an RP-LC retention time of 793 s.

For the compound `COc1ccc(OC)c(CNC(=O)COc2ccc(NC(=O)C3CC3)cn2)c1`, the RP-LC retention time amounted to 712 s.

Consider `Cc1cc(F)ccc1NC(=O)C1CCN(C(=O)c2ncn3c2COC(c2ccc(F)cc2)C3)CC1` (centres undefined), for which the RP-LC retention time was 736 s.

On to `O=C(CN1C(=O)CC(c2ccco2)Sc2ccccc21)Nc1ccccc1C(F)(F)F` (centres undefined), for which the RP-LC retention time was 899 s.

Compound `Cc1ccc(NC(=O)c2cc(C3CC3)n3nccc3n2)c(C)c1` gave an RP-LC retention time of 1110 s.

Compound `Cc1cccc(CNS(=O)(=O)c2cc(-c3[nH]ncc3C(=O)N3CCCC3)oc2C)c1` showed an RP-LC retention time of 744 s.

In the case of `O=[N+]([O-])c1ccc(CNc2nc(NCc3cccc(C(F)(F)F)c3)nc3nc[nH]c23)cc1`, the RP-LC retention time was 790 s.

As to `O=C(Cn1c2ccccc2n2c(=O)cc(-c3ccncc3)nc12)NC1CCCC1`, the RP-LC retention time was determined as 660 s.

As for `Cc1cccc2c(=O)c3c([nH]c12)CCN(CC(=O)NCc1ccccc1)C3`, the RP-LC retention time came to 601 s.

As to `CN(C(=O)C1CCCN(c2ncnc3c2nc2n3CCCCC2)C1)c1ccccc1Cl` (centres undefined), the RP-LC retention time came out at 846 s.

`CCC(CC)C(=O)Nc1nc(-c2ccc3c(c2)NC(=O)CO3)cs1` displayed an RP-LC retention time of 846 s.

On to `Cc1cccc(C)c1N1CCN(C(=O)c2cccc(F)c2)CC1`, for which the RP-LC retention time stood at 1030 s.

Take `CCOC(=O)C1CCN(c2cc3c(cc2NC(=O)CC2CCCCC2)n(C)c(=O)c(=O)n3C)CC1`: the RP-LC retention time came out at 981 s.

`CCS(=O)(=O)N1CC(=O)N(Cc2cccc(C)c2)C(C)(C(=O)NCc2ccc(F)cc2)C1` (centres undefined) registered an RP-LC retention time of 882 s.

Regarding `CCn1ncc(NC(=O)COc2ccc(F)cc2)c(N2CCOCC2)c1=O`, the RP-LC retention time came to 821 s.

In turn, `CCOc1ccc(Cl)cc1S(=O)(=O)N1CCC(C(=O)NCc2ccc3c(c2)OCO3)CC1` returned an RP-LC retention time of 922 s.

`COC(=O)c1ccc(N2C=C(C#N)S(=O)(=O)c3ccc(Cl)cc32)cc1` registered an RP-LC retention time of 954 s.

For the compound `O=C(NCc1cccc(F)c1)C1CCN(c2cncnc2N2CCOCC2)CC1`, the RP-LC retention time is 614 s.

On to `O=C(Cn1cnc(-c2nc(-c3ccccc3)cs2)c1)Nc1ccc(F)cc1F`, for which the RP-LC retention time came out at 744 s.

In turn, `CCc1ccc(CNC(=O)CN2C(=O)NC3(CCCCC3)C2=O)cc1` showed an RP-LC retention time of 792 s.

`CCOc1ccc(CNC(=O)c2c(C)sc3ccn(CC(C)C)c(=O)c23)cc1`: the RP-LC retention time was found to be 1010 s.

Consider `O=C(NCc1cccc(C(F)(F)F)c1)c1csc(C(=O)NC2CCCC2)n1`, for which the RP-LC retention time was found to be 1000 s.

Compound `COc1ccc(Cl)cc1NC(=O)CSc1ccc2nnc(-c3cccs3)n2n1` returned an RP-LC retention time of 766 s.

Take `CCCCC(=O)Nc1ccc2c(c1)nc(CN1CCN(C(=O)c3ccco3)CC1)n2C`: the RP-LC retention time is 619 s.

`CC(=O)c1cccc(NC(=O)CN2C(=O)COc3ccc(C(=O)N(C)C)cc32)c1`: the RP-LC retention time amounted to 651 s.

`O=C(NCc1cccnc1)C1CC(=O)N(c2ccc3c(c2)CCN3C(=O)C2CCC2)C1` (centres undefined) showed an RP-LC retention time of 598 s.

In turn, `Cc1nnc(NC(=O)CSc2nnc(-c3ccccc3F)o2)s1` registered an RP-LC retention time of 700 s.

As to `CCn1cc(CC(=O)NCCC(C)C)c2cccnc21`, the RP-LC retention time was determined as 706 s.

`COc1ccc(-c2cc(C(=O)N3CCN(S(=O)(=O)c4ccc(C)cc4C)CC3)[nH]n2)cc1` registered an RP-LC retention time of 924 s.

`CCOc1ccccc1C(=O)N1CCC2(CC1)NCc1ccccc1-n1ccnc12` returned an RP-LC retention time of 572 s.

Compound `COc1cccc(S(=O)(=O)Nc2ccc3c(c2)CCC(=O)N3CC(C)C)c1` returned an RP-LC retention time of 868 s.

`CCCNC(=O)C1CCCN(c2ccc(SCC(=O)Nc3ccc(Cl)cc3F)nn2)C1` (centres undefined) displayed an RP-LC retention time of 733 s.

As to `O=C(c1ccoc1)N1CCCC(c2cc(-c3ccccc3)n[nH]2)C1` (centres undefined), the RP-LC retention time was determined as 594 s.

The compound `O=C(CSc1cc(N2CCN(c3ccccc3F)CC2)ncn1)NCCC1=CCCCC1` came in with an RP-LC retention time of 1190 s.

In turn, `Cn1c(Cn2c(=O)sc3ccccc32)nnc1SCC(=O)N1CCc2ccccc21` displayed an RP-LC retention time of 746 s.

`CN1CCC2(CC1)CN(C(=O)Nc1ccccc1)CC2c1nc(-c2ccccc2)no1` (centres undefined) returned an RP-LC retention time of 659 s.

`Cc1ccc(CNC(=O)C2CCCN(c3nc4ccsc4c(=O)n3Cc3ccc(F)cc3)C2)cc1` (centres undefined) had an RP-LC retention time of 1010 s.

The compound `COc1ccc(CCNC(=O)C2CCN(S(C)(=O)=O)c3ccccc3O2)cc1` (centres undefined) returned an RP-LC retention time of 828 s.

In turn, `CC(=O)N1c2ccc(S(=O)(=O)N3CCOCC3)cc2CC1C(=O)N1CCN(c2ccccc2)CC1` (centres undefined) showed an RP-LC retention time of 776 s.

In the case of `CN(C)C(=O)c1n[nH]c2c1CN(C(=O)c1ccccc1F)CC2`, the RP-LC retention time came out at 618 s.

As for `CCc1sc(NC(=O)c2cc3c([nH]c2=O)CCCC3=O)nc1-c1ccc(C)c(C)c1`, the RP-LC retention time came to 1030 s.

On to `O=C(Cc1ccccc1Cl)N1CCc2nc(-c3ccc(Cl)cc3)ncc2C1`, for which the RP-LC retention time was found to be 1140 s.

For `CCCN(CC1CCOC1)S(=O)(=O)c1cccc(OC)c1` (centres undefined), the RP-LC retention time stood at 881 s.

The compound `Cc1ccccc1Oc1nccn2c(=O)n(CC(=O)Nc3ccc(F)cc3)nc12` came in with an RP-LC retention time of 838 s.

In turn, `CS(=O)(=O)N1CCC(C(=O)Nc2cccc(Cl)c2)Oc2ccccc21` (centres undefined) had an RP-LC retention time of 954 s.

`Cc1ccc(NC(=O)Cn2cnc3nc(N4CCC(C(=O)NC5CC5)CC4)sc3c2=O)cc1`: the RP-LC retention time was 674 s.

With `O=C(C(=O)N1CCN(c2cccc(Cl)c2)CC1)c1c[nH]c2ccccc12`, the RP-LC retention time is 710 s.

Turning to `Cc1ccn2cc(-c3ccc(NC(=O)COc4ccccc4)cc3)nc2n1`, the RP-LC retention time was determined as 663 s.

The compound `Cc1ccc(N2C(=O)CCS2(=O)=O)cc1S(=O)(=O)Nc1cccc2cccnc12` registered an RP-LC retention time of 808 s.

On to `CCCN(C(=O)c1cccc(OC)c1)c1nc(-c2ccccc2)cs1`, for which the RP-LC retention time stood at 1350 s.

Consider `CCc1cc(C(=O)N2CCN(c3ccccn3)CC2)nc2cc(-c3cccs3)nn12`, for which the RP-LC retention time came out at 706 s.

`O=C(NCCc1ccco1)c1c(-c2ccccc2)nnc2ccccc12` had an RP-LC retention time of 784 s.

As to `CCOCCOC1CCN(S(=O)(=O)Cc2ccccc2)CC1`, the RP-LC retention time was determined as 856 s.

On to `CNC(=O)c1cc(-c2ccc(F)cc2)nc2ccccc12`, for which the RP-LC retention time worked out at 819 s.

As for `O=C(Nc1ccc2c(c1)OCCO2)N1CCC(n2c(-c3ccco3)nc3cccnc32)C1` (centres undefined), the RP-LC retention time was 705 s.

In turn, `CCNC(=O)c1cn(-c2ccc(NC(=O)CC(C)C)cn2)cn1` gave an RP-LC retention time of 658 s.

On to `CCn1cnc(S(=O)(=O)N2CCC(C(=O)NCc3ccc(OC)cc3)CC2)c1`, for which the RP-LC retention time was determined as 674 s.

For the origin of these results see the METLIN SMRT retention time set (Domingo-Almenara et al. 2019).
